Source: patent publication US8501715B2, “Oxidized lipids and uses thereof in the treatment of inflammatory diseases and disorders” (Vascular Biogenics Ltd., priority 2003, dated 2013)

What was measured:
apoE(−/−) mice = conditions: administration of alpha-galactosylceramide; Tupin et al.; cited from earlier work
apoE(−/−)CD1d(−/−) mice = conditions: administration of alpha-galactosylceramide; Tupin et al.; cited from earlier work
[1] = test system: T-cells from inguinal lymph node; assay: Proliferation assay (stimulation index) of lymph node cells exposed to Human ox-LDL; assay type: in vivo; conditions: oral 1 mg/mouse every other day for 5 days
Experimental: 6 week old male Apo-E KO mice were fed either 1 mg/mouse L-ALLE (L-ALLE) (n=2) or POVPC (POVPC) (n=3) in 0.2 ml PBS; or PBS alone (CONTROL) (n=3) every other day for 5 days. One week following the last feeding the mice were immunized with a single subcutaneous injection of 50 μg Human oxidized LDL antigen. 7 days later T-cells from inguinal lymph node were prepared as described in Materials and Methods section that follows, and exposed to the sensitizing Human ox-LDL antigen for in-vitro assessment of proliferation. Proliferation, indicating immune reactivity, is expressed as the ratio between incorporation of labeled thymidine into the T-cell's DNA in the presence and absence of human ox-LDL antigen (stimulation index, S.I.).
II. […]
Proliferation was assayed eight days after immunization with the oxidized LDL as follows: Spleens or lymph nodes were prepared by meshing the tissues on 100 mesh screens. […] Incomplete medium was added (10 ml), cells were centrifuge for 7 minutes at 1,700 rpm, resuspended in RPMI medium and counted in a haemocytometer at 1:20 dilution (10 μl cells+190 μl Trypan Blue). Proliferation was measured by the incorporation of [^3H]-Thymidine into DNA in triplicate samples of 100 μl of the packed cells (2.5×10^6 cells/ml) in a 96 well microtiter plate. […]

Apo-E KO mice [2] = assay: Assessment of atherosclerosis: lesion area in the aortic sinus; assay type: in vivo, mouse; conditions: oral 1 mg/mouse
Apo-E KO mice [3] = assay: Aorta lesion (% from total area); assay type: in vivo; conditions: oral 1 mg/mouse, 5 feedings every other day every 4 weeks over 12 weeks; 24.5 week old mice; End
Text: Assessment of Atherosclerosis: Quantification of atherosclerotic fatty streak lesions was done by calculating the lesion size in the aortic sinus as previously described (Paigen et al. Quantitative assessment of atherosclerotic lesions in mice. Atherosclerosis 1987; 68: […]) and by calculating the lesion size in the aorta. Briefly, after perfusion with saline Tris EDTA, the heart and the aorta were removed from the animals and the peripheral fat cleaned carefully. The upper section of the heart was embedded in OCT medium (10.24% w/w polyvinyl alcohol; 4.26% w/w polyethylene glycol; 85.50 w/w nonreactive ingredients) and frozen. […] Sections were evaluated for fatty streak lesions after staining with oil-red O. Lesion areas per section were scored on a grid (Rubin et al. Inhibition of early atherogenesis in transgenic mice by human apoplipoprotein A-I. Nature 1991; 353: 265-267) by an observer counting unidentified, numbered specimens. […]
Their effect on the triglyceride and cholesterol fractions of VLDL was also monitored by FPLC. […]
(§1) Mice were bled prior to feeding (Time 0), after the 2nd set of feeding and at the conclusion of the experiment (End) for determination of lipid profile, lipid fractionation and plasma collection. Atherosclerosis was assessed as described above in the aorta sinus and aorta. […] Weight was recorded every 2 weeks throughout the experiment. […]

[4] = FPLC analysis of triglyceride and cholesterol content of VLDL; assay type: in vivo; conditions: oral 1 mg/mouse, 3 sets over 12 weeks; measured 9 weeks from t=0; FPLC of pooled blood
Experimental: (§2) 24.5 weeks old Apo-E KO mice were fed 1 mg/mouse L-ALLE (triangle) (n=11), D-ALLE (inverted triangle) (n=9) or POVPC (square) (n=10) every other day for 5 days, at 4 weeks intervals over a 12 weeks period. Control mice were fed an identical volume (0.2 ml) and regimen of PBS (circle) (n=10). Triglyceride content (Tg, mg/ml) was measured 9 weeks from t=0, by enzymatic colorimetric method in the VLDL fractions following separation of pooled blood samples on FPLC, as described in the materials and methods section that follows.
as §2, with “Cholesterol” for “Triglyceride”, “(Cholesterol,” for “(Tg,”
FPLC Analysis: Fast Protein Liquid Chromatography analysis of cholesterol and lipid content of lipoproteins was performed using Superose 6 HR 10/30 column (Amersham Pharmacia Biotech, Inc, Peapack, N.J.) on a FPLC system (Pharmacia LKB. FRAC-200, Pharmacia, Peapack, N.J.). A minimum sample volume of 300 μl (blood pooled from 3 mice was diluted 1:2 and filtered before loading) was required in the sampling vial for the automatic sampler to completely fill the 200 μl sample loop. Fractions 10-40 were collected, each fraction contained 0.5 ml. A 250 μl sample from each fraction was mixed with freshly prepared cholesterol reagent or triglyceride reagent respectively, incubated for 5 minutes at 37° C. and assayed spectrophotometrically at 500 nm.
Their effect on the triglyceride and cholesterol fractions of VLDL was also monitored by FPLC. […] male, 24.5 week old Apo-E KO mice were divided into 5 groups. In group A (n=11) mice were fed with 1 mg/mouse L-ALLE suspended in 0.2 ml PBS, administered by gavage, as described above, every other day for 5 days. In group B (n=9) mice were fed with 1 mg/mouse D-ALLE suspended in 0.2 ml PBS, administered per os, as described above, every other day for 5 days. In group C (n=10) mice were fed with 1 mg/mouse POVPC suspended in 0.2 ml PBS, administered by gavage, as described above, every other day for 5 days. […]
as §1

SMILES | increase in lesion size (apoE(−/−) mice) | Lesion size (apoE(−/−)CD1d(−/−) mice) | change of Stimulation Index versus PBS ([1]; then immunization with Human oxidized LDL) | Stimulation Index (SI) ([1]; then s.c. immunization with Human oxidized LDL, lymph nodes one week later) | Sinus Lesion (Apo-E KO mice [2]; 5 feedings every other day every 4 weeks over 12 weeks, 24.5 week old mice, End (12 weeks after first feeding)) | protection from atheromatous progression (Apo-E KO mice [2]; late stage, compared with lesion scores at 24.5 weeks) | Aorta lesion (% from total area) (Apo-E KO mice [3]) | cholesterol content of VLDL [4] | triglyceride content of VLDL [4]
CCCCCCCCCCCCCCCCCCCCCCCCCC(=O)N[C@@H](CO[C@H]1O[C@H](CO)[C@H](O)[C@H](O)[C@H]1O)[C@H](O)[C@H](O)CCCCCCCCCCCCCC [alpha-galactosylceramide] | 50% | did not affect lesion size |  |  |  |  |  |  | 
CCCCCCCCCCCCCCCCOC[C@@H](COP(=O)([O-])OCC[N+](C)(C)C)OCCCCC=O [L-ALLE, 3-hexadecyl-2-(5′-oxo-pentanyl)-sn-glycero-1-phosphocholine] |  |  | −78% | 7.3 ± 2.3 | 233056 ± 12746 μm^2 | nearly complete protection | 5.4 % from total area | reduction | reduction
